Data: ChEMBL document CHEMBL6074666, “Design and Synthesis of Acyclic Boronic Acid Arginase Inhibitors” (J Med Chem, 2024)

Experiments:
[1] = molecular target: T1, Arginase-2, mitochondrial (Homo sapiens, UniProt P78540); experiment: Inhibition of recombinant human Arg2 extracted from Escherichia coli incubated for 30 mins by Ellman's method
T1 sequence (P78540 whole entry): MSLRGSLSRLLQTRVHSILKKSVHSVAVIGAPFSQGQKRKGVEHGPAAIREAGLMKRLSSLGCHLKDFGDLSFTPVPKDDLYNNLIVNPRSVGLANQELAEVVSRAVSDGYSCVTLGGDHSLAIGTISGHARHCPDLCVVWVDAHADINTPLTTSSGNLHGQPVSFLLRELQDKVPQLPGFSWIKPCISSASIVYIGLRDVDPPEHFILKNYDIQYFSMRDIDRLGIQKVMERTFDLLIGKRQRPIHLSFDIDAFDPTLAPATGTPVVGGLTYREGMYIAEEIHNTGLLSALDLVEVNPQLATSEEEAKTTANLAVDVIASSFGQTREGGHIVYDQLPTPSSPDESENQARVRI

[2] = Prodrug conversion in rat assessed as oral bioavailability of (2S,3S)-2-amino-3-(aminomethyl)-6-boronohexanoic acid metabolite; assay type: ADME, organism-based; settings: in vivo
Arginase-1 [3] = molecular target: T2, Arginase-1 (Homo sapiens, UniProt P05089); experiment: Inhibition of recombinant human Arg1 extracted from Escherichia coli incubated for 30 mins by Ellman's method
T2 sequence (P05089 whole entry): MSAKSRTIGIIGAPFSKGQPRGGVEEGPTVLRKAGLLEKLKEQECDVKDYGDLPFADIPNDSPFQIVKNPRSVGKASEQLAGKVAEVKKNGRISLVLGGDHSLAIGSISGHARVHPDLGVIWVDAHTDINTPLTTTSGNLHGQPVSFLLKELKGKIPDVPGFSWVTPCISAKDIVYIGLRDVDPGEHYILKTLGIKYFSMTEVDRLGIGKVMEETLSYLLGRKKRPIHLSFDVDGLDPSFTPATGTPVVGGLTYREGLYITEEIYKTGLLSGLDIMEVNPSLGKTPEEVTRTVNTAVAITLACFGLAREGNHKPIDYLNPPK

Arginase-1 [4] = molecular target: T2, Arginase-1; experiment: Inhibition of Arg1 (unknown origin)
[5] = Oral availability in rat; assay type: ADME; settings: in vivo
[6] = molecular target: T3, Arginase-1 (Homo sapiens) (UniProt P05089); experiment: Potency index, ratio of ABH IC50 to test compound IC50 for recombinant human Arg1 extracted from Escherichia coli incubated for 30 mins by Ellman's method
T3 sequence (whole entry): T2 sequence (P05089 whole entry)

| IC50 [1] | F [2] | IC50 (Arginase-1 [3]) | bioavailability [5] | Structure (SMILES) | other results |
| --- | --- | --- | --- | --- | --- |
| 41.8 µM |  | 19.2 µM |  | NC(=O)[C@H](CCCB(O)O)[C@H](N)C(=O)O |  |
| 51.9 µM |  | 18.5 µM |  | COC(=O)[C@H](CCCB(O)O)[C@H](N)C(=O)O |  |
| > 100 µM |  | 34.2 µM |  | CNC(=O)[C@H](CCCB(O)O)[C@H](N)C(=O)O |  |
|  | 41% | 43 µM | 8.3% | CC(C)[C@H](N)C(=O)NC[C@H](CCCB(O)O)[C@H](N)C(=O)O |  |
| 1.93 µM |  |  |  | CNC[C@@H](CCCB(O)O)[C@H](N)C(=O)O |  |
|  |  | > 100 µM |  | CNC(=O)[C@@H](CCCB(O)O)[C@H](N)C(=O)O |  |
| > 100 µM |  | > 100 µM |  | NC(=O)[C@@H](CCCB(O)O)[C@H](N)C(=O)O |  |
| 5.18 µM |  |  |  | NC(=O)NC[C@@H](CCCB(O)O)[C@H](N)C(=O)O |  |
|  | 55% | 12 µM | 5.1% | C[C@H](N)C(=O)NC[C@H](CCCB(O)O)[C@H](N)C(=O)O | Ratio IC50 [6]: 40 |
|  |  | 157 µM | 10% | C[C@H](N)C(=O)NC[C@@H](CCCB(O)O)[C@H](N)C(=O)O |  |
| 96.8 µM |  | 74 µM |  | N[C@H](C(=O)O)[C@@H](N)CCCB(O)O |  |
|  | 56% | 145 µM | 29% | CC(C)[C@H](N)C(=O)NC[C@@H](CCCB(O)O)[C@H](N)C(=O)O |  |
| > 100 µM |  | > 100 µM |  | COC(=O)[C@@H](CCCB(O)O)[C@H](N)C(=O)O |  |

The remaining lines, values behind:

| Structure (SMILES) | IC50 [1] | F [2] | IC50 (Arginase-1 [3]) | bioavailability [5] | other results |
| --- | --- | --- | --- | --- | --- |
| N[C@H](C(=O)O)[C@H](CCCB(O)O)CN1CCCCC1 | 17.4 µM |  |  |  |  |
| CC(C)[C@H](N)C(=O)N[C@H](C(=O)O)[C@H](CN)CCCB(O)O |  | 31% |  |  |  |
| N[C@@H](CCCCB(O)O)C(=O)O |  |  |  |  | IC50 (Arginase-1 [4]): 0.47 µM |
| CC(C)(C)[C@H](N)C(=O)NC[C@H](CCCB(O)O)[C@H](N)C(=O)O |  |  | 32 µM | 19% |  |
| NCC(=O)NC[C@H](CCCB(O)O)[C@H](N)C(=O)O |  | 13% | 21 µM | 6.3% |  |
| NC[C@H](CCCB(O)O)[C@H](N)C(=O)O | 0.224 µM |  |  | 11% |  |
| COC[C@H](CCCB(O)O)[C@H](N)C(=O)O | 6.75 µM |  | 4.12 µM |  |  |
| C[C@H](N)C(=O)N[C@H](C(=O)O)[C@H](CN)CCCB(O)O |  | 66% | 68 µM |  |  |
| N[C@H](C(=O)O)[C@H](CF)CCCB(O)O | 1.88 µM |  | 0.655 µM |  |  |
| CC[C@H](N)C(=O)NC[C@H](CCCB(O)O)[C@H](N)C(=O)O |  | 72% | 25 µM | 1.5% |  |
| C[C@H](N)C(=O)N[C@H](C(=O)O)[C@@H](CN)CCCB(O)O |  | 16% |  |  |  |
| NCC[C@@H](CCCB(O)O)[C@H](N)C(=O)O | 0.625 µM |  |  |  |  |
| N[C@H](C(=O)O)[C@@H](CF)CCCB(O)O | 6.08 µM |  | 4.23 µM |  |  |
| COC[C@@H](CCCB(O)O)[C@H](N)C(=O)O | 18.7 µM |  | 10.9 µM |  |  |
| NC[C@@H](CCCB(O)O)[C@H](N)C(=O)O |  |  |  | 17% |  |
| CC[C@H](C)[C@H](N)C(=O)NC[C@H](CCCB(O)O)[C@H](N)C(=O)O |  | 39% | 33 µM | 4.5% |  |
| N=C(N)NC[C@@H](CCCB(O)O)[C@H](N)C(=O)O | 0.534 µM |  | 0.22 µM |  |  |
